In BindingDB's records for doi:10.1111/cbdd.12530 (Chinese Academy of Sciences, 2015):

Target: Dihydroorotate dehydrogenase (quinone), mitochondrial (Homo sapiens, UniProt Q02127)
Test: DCIP-linked Assay
Conditions: pH 8
Experimental: Recombinant human DHODH (final enzyme concentration between 20 and 60 nM in the assay well) were incubated at 37 °C in 50 mM Tris-HCl, 0.1% Triton X-100, 1 mM KCN, pH 8.0 with coenzyme Q10 (100 µM), and the tested compounds at different concentrations (final DMSO concentration 0.1% v/v). The reaction was initiatedby the addition of DHO (500 µM), and the reduction of DCIP (50 µM) was monitored through a decrease in absorbance at 650 nm.

Dihydroorotate dehydrogenase (quinone), mitochondrial, sequence (Q02127 whole entry): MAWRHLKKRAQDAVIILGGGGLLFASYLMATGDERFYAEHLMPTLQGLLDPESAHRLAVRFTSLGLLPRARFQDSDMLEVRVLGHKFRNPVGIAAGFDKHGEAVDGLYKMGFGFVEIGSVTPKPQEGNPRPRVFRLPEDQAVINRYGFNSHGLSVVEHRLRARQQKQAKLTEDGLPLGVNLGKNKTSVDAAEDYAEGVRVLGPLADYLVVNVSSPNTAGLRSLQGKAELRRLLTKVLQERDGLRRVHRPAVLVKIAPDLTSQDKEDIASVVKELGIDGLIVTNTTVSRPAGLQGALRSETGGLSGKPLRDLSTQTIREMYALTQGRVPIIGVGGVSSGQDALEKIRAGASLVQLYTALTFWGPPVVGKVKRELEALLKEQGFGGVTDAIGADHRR

| Compound | IC50 [µM] |
| --- | --- |
| O=C1N[C@@H](Cc2ccccc2)C(=O)N2C[C@H](O)C[C@@H]12 [Cyclo L-OH-Pro-L-Phe (Fr. 1-4)] | 0.773 |
| CC[C@H](C)[C@@H]1NC(=O)[C@@H]2CCCN2C1=O [Cyclo L-Pro-L-Ile (Fr. 1-5)] | > 50 |
| CC(C)C[C@@H]1NC(=O)[C@@H]2CCCN2C1=O [Cyclo L-Pro-L-Leu (Fr. 1-6)] | > 50 |
| O=C1N[C@@H](Cc2ccccc2)C(=O)N2CCC[C@@H]12 [Cyclo L-Pro-L-Phe (Fr. 2-2)] | > 50 |
| CC(C)[C@@H]1NC(=O)[C@@H]2CCCN2C1=O [Cyclo L-Pro-L-Val (Fr. 2-1)] | > 50 |
